{"source": "patent US9040553B2", "about": "“Phenoxyisobutyric acid compounds and method of synthesis” (CELL VIABLE CORPORATION, priority 2010, dated 2015)", "molecular_target": "BSA (Bos taurus, UniProt P02769)", "sequence (P02769 25-607)": "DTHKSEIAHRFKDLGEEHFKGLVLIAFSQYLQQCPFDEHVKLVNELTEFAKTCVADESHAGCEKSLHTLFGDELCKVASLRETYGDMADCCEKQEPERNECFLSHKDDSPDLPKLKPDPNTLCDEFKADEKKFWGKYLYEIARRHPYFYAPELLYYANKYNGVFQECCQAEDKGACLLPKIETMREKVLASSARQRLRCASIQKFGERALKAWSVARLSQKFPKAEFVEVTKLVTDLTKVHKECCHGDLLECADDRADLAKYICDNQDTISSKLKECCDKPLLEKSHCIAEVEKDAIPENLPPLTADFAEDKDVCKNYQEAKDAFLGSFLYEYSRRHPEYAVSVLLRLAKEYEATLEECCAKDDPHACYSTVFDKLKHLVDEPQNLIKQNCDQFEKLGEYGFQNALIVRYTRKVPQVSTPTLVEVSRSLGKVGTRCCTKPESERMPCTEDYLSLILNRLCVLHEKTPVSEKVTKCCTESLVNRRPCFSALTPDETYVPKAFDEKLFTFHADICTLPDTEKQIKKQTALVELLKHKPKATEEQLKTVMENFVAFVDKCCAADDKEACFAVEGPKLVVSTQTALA", "assay": "BSA glycation inhibition (glucose incubation, SDS gel/PVDF blot, periodic acid-Schiff staining)", "assay_type": "biochemical", "settings": "BSA incubated with glucose and compound at 37° C. for 5 weeks; periodic acid-Schiff base staining of blot", "description": "Compound No. 1 was tested for glycation activity according to the following protocol:\nBSA was incubated in the presence of glucose and Compound No. 1 at 37° C. for 5 weeks. Aliquots of 2 μg protein were run on an SDS gel and transferred to PVDF membrane—the same procedure as for a western blot. The membrane was then processed to identify glycoprotein content by the periodic acid-Schiff base method. The positive reaction is pink, and glycation also shifts the molecular weight so the band migrates more slowly down the gel (higher position on the blot). […] Amimoguanadine was used as a control Reduced staining is an indication of glycation inhibition.", "data": [{"substance": "3,3′-dichloro-1,1′-diphenyl-4,4′-diureidophenoxyisobutyric acid [Compound No. 1]", "values": [{"measurement": "glycation inhibition (reduced glycoprotein staining)", "result": "found to inhibit glycation"}]}]}
